Four molecules from patent publication US7074768B2, “Modified protein kinase A-specific oligonucleotides and methods of their use” (Idera Pharmaceuticals, Inc., priority 1995, dated 2006) can be followed below.

What is called inhibition is the relative decrease from the control value, in per cent. Lower therefore signals a response near the control.

The subject of series [1] is LS-174T human colon carcinoma cells. Nature of the series: LS-174T tumor growth and antisense treatment. It is filed as in vivo, athymic mice. As to conditions: single s.c. dose 1 mg per mouse, FIG. 1. The method, then:
LS-174T human colon carcinoma cells (1×10^6 cells) were inoculated subcutaneously (s.c.) into the left flank of athymic mice. A single dose of RIα antisense hybrid (Oligo 165, SEQ ID NO:4), inverted hybrid (Oligo 166, SEQ ID NO:6), or antisense (Oligo 164, SEQ ID NO:1) oligonucleotides or control oligonucleotide (Oligo 169, SEQ ID NO:7); Oligo 168 (SEQ ID NO:5); Oligo 188, (SEQ ID NO:3) as shown in Table 1 (1 mg per 0.1 ml saline per mouse), or saline (0.1 ml per mouse), was injected s.c. into the right flank of mice when tumor size reached 80 to 100 mg, about 1 week after cell inoculation. Tumor volumes were obtained from daily measurement of the longest and shortest diameters and calculation by the formula, 4/3πr^3 where r=(length+width)/4. At each indicated time, two animals from the control and antisense-treated groups were killed, and tumors were removed and weighed.

For series [2], the system named is ZR75-1 human breast cancer cells. Nature of the series: Soft agar growth of ZR75-1 cells. Format: cell-based. Here is the method:
(§1) Cells (10^4 cells/well) were seeded in 0.5 ml of 0.3% Difco Noble agar (Difco, Detroit, Mich.) supplemented with complete culture medium. This suspension was layered over 0.5 ml of 0.8% agar-medium base layer in 24 multiwell cluster dishes (Becton Dickinson) and treated with various concentrations of docetaxel (day 0). […] Twelve days after the last treatment, cells were stained with nitroblue tetrazolium (Sigma) and colonies larger than 0.05 mm were counted.
as §1
Soft agar growth. Cells (10^4 cells/well) were seeded in 0.5 ml of 0.3% Difco Noble agar (Difco, Detroit, Mich.) supplemented with complete culture medium. This suspension was layered over 0.5 ml of 0.8% agar-medium base layer in 24 multiwell cluster dishes (Becton Dickinson) and treated with various concentrations of docetaxel (day 0). The HYB 165 was added after 12 hrs (day 1) and on day 3. Twelve days after the last treatment, cells were stained with nitroblue tetrazolium (Sigma) and colonies larger than 0.05 mm were counted.
Soft agar growth. Cells (10^4 cells/well) were seeded in 0.5 ml of 0.3% Difco Noble agar (Difco, Detroit, Mich.) supplemented with complete culture medium. This suspension was layered over 0.5 ml of 0.8% agar-medium base layer in 24 multiwell cluster dishes (Becton Dickinson) and treated with various concentrations of docetaxel (day 0). The HYB 508 was added after 12 hrs and on day 2, 3 and 4. After 12 days the cells were stained with nitroblue tetrazolium (Sigma) and colonies larger than 0.05 mm were counted.
Soft agar growth. Cells (10^4 cells/well) were seeded in 0.5 ml of 0.3% Difco Noble agar (Difco, Detroit, Mich.) supplemented with complete culture medium. […] After 12 days the cells were stained with nitroblue tetrazolium (Sigma) and colonies larger than 0.05 mm were counted.
Soft agar growth. Cells (10^4 cells/well) were seeded in 0.5 ml of 0.3% Difco Noble agar (Difco, Detroit, Mich.) supplemented with complete culture medium. This suspension was layered over 0.5 ml of 0.8% agar-medium base layer in 24 multiwell cluster dishes (Becton Dickinson) and treated with various concentrations of HYB 165 or HYB295 every 48 hours for three times. After 12 days the cells were stained with nitroblue tetrazolium (Sigma, St. Louis, Mo.) and colonies larger than 0.05 mm were counted.
Soft agar growth. Cells (10^4 cells/well) were seeded in 0.5 ml of 0.3% Difco Noble agar (Difco, Detroit, Mich.) supplemented with complete culture medium. This suspension was layered over 0.5 ml of 0.8% agar-medium base layer in 24 multiwell cluster dishes (Becton Dickinson) and treated with various concentrations of HYB 165 or HYB508 every 48 hours for three times. After 12 days the cells were stained with nitroblue tetrazolium (Sigma, St. Louis, Mo.) and colonies larger than 0.05 mm were counted.

In series [3] the test system is GEO human colon cancer cells. The series can be described thus: Soft agar growth of GEO cells. Format: cell-based. Here is the method: Cells (10^4 cells/well) were seeded in 0.5 ml of 0.3% Difco Noble agar (Difco, Detroit, Mich.) supplemented with complete culture medium. This suspension was layered over 0.5 ml of 0.8% agar-medium base layer in 24 multiwell cluster dishes (Becton Dickinson) and treated with various concentrations of paclitaxel (day 0). The HYB 165 was added after 12 hrs (day 1) and on day 2, 3 and 4. 12 days after the last treatment, cells were stained with nitroblue tetrazolium (Sigma) and colonies larger than 0.05 mm were counted.

The subject of series [4] is GEO colon cancer xenografts. Nature of the series: GEO colon cancer xenografts in nude mice (tumor growth, survival). It is filed as in vivo. As to conditions: single agent. The method, then:
We investigated the antitumor activity of HYB 165 (AS RIα) in nude mice bearing GEO colon cancer xenografts, using either the intraperitoneal (i.p.) or the oral route of administration. When established GEO tumors of approximately […] were detectable, groups of 10 mice were treated i.p. with either HYB 165 or a control modified backbone oligonucleotide with a scrambled sequence, at 5 or 10 mg/kg/dose, daily on days 7 to 11 and 14 to 18. […] The control oligonucleotide produced no inhibition at 10 mg/kg/dose.
Following oral administration, modified backbone oligonucleotides (MBOs) are absorbed in the upper and lower part of the GI tract and distributed to major organs (S. Agrawal and R. Zhang, In: Antisense Research and Application, S. T. Crooke, ed.), Handbook of Experimental Pharmacology, Springer, Berlin, p. 525–543 (1998). Therefore, HYB 165 and the control oligonucleotide were administered to GEO tumor-bearing mice as described above, except that HYB 165 and the control oligonucleotide were administered orally.
On day 7 after tumor cell injection, one group of 10 mice was treated with taxol (20 mg/kg/dose, i.p.), and the treatment was repeated every 2 weeks (on day 21 and day 35) for a total of three cycles. Two other groups of mice were treated with either HYB 165 (AS RIα) or a control MBO with a scrambled sequence (10 mg/kg/dose, p.o.), daily for five days (days 8–12). Treatment was repeated every 2 weeks (days 22–26 and days 36–40) for a total of three cycles. Two more groups of mice were treated with taxol and either HYB 165 or the control MBO, administering the taxol (20 mg/kg/dose, i.p.) on day 7, followed by oral administration of either HYB 165 or the control MBO daily for five days (days 8–12). The sequential treatment was repeated with the same schedule every 2 weeks for a total of three cycles.

The subject of series [5] is TGFα. Nature of the series: Histochemical analysis of GEO tumors: TGFα. It is filed as in vivo. The note with it: single agent, after two cycles. The source says: (§2) Tumor specimens from the different groups of mice were examined by histochemical analysis at different time points to evaluate the expression of a variety of biological parameters.
(§3) TGFα and AR are growth factors which bind to EGFR and control human colon cancer growth through autocrine and paracrine mechanisms (F. Ciardiello and G. Tortora, Clin. Cancer Res. 4:821–828 (1998); D. S. Salomon, Crit. Rev. Oncol. Hematol. 19:183–232 (1995)).

Series [6] concerns AR. Nature of the series: Histochemical analysis of GEO tumors: AR. As to conditions: single agent, after two cycles. It is filed as in vivo.
Description: as §2, §3

Series [7] relates to p27. The series can be described thus: Histochemical analysis of GEO tumors: p27. Format: in vivo. The note with it: single agent. The source says: Tumor specimens from the different groups of mice were examined by histochemical analysis at different time points to evaluate the expression of a variety of biological parameters. […] No other treatment was able to affect RIα expression.
Loda et al. (Nature Medicine 3:231–234 (1997)) discloses that the cyclin-dependent kinase (CDK) inhibitor p27 is […] related to cell entry into S phase and proliferation and that reduction of its expression correlates with poor prognosis in colon cancer patients.

Series [8] has as its system Factor VIII related antigen. The series can be described thus: Tumor-induced neovascularization (anti-Factor VIII related antigen immunohistochemistry). Format: in vivo. As to conditions: single agent, vs untreated mice or scramble MBO. The source says: In recent years, the critical role of tumor-induced neovascularization in neoplastic development, progression and metastasis has been elucidated (J. I. Fokman, In: J. Mendelsohn et al., eds., The Molecular Basis of Cancer, pp 206–232, Philadelphia: W B Saunders (1995) . A reliable histologic estimate of novel blood vessels on tumor specimens is the microvessel count (MVC) in the most intense areas of neovascularization. In the present study, tumor-induced neovascularization was quantified by immunohistochemistry using an anti-Factor VIII related antigen monoclonal antibody (N. Weidner, Breast Cancer Res. Treat., 36:169–180 (1995)).

On to “Oligo 168: Mismatched hybrid control GCG CGC CTC CTC GCU GGC, SEQ ID NO:5 (GCGCGCCTCCTCGCUGGC; hybrid: 2'-O-methyl ribonucleotide ends, DNA middle, exact positions not given here) [reference compound]”, for which the “size of the tumor” value in series [1] was “little ability to keep tumor size at a minimum relative to the hybrid and inverted hybrid oligonucleotides”.
As for `CC(=O)O[C@@]12CO[C@@H]1C[C@H](O)[C@@]1(C)C(=O)[C@H](O)C3=C(C)[C@@H](OC(=O)[C@H](O)[C@@H](NC(=O)OC(C)(C)C)c4ccccc4)C[C@@](O)([C@@H](OC(=O)c4ccccc4)[C@H]21)C3(C)C` [docetaxel, reference compound], the inhibition at 10 pM in series [2] (Homo sapiens, ZR-75-1, docetaxel 0.01 nM alone (Examples 13, 14)) was less than 12%; in series [2] (Homo sapiens, ZR-75-1, docetaxel 0.01 nM alone (Examples 21, 22)) it was less than 15%. Moreover, the inhibition at 30 pM in series [2] (Homo sapiens, ZR-75-1, docetaxel 0.03 nM alone (Examples 21, 22)) was roughly 40%. The same molecule returned an inhibition at 0.0001 µM in series [2] (Homo sapiens, ZR-75-1, docetaxel 0.1 nM alone (Examples 21, 22)) of roughly 72%. The inhibition at 0.0003 µM in series [2] (Homo sapiens, ZR-75-1, docetaxel 0.3 nM alone (Examples 21, 22)) was roughly 85%. In addition, the growth inhibition entry in series [2] (docetaxel alone, doses ranging between 0.01 and 0.3 nM, maximum) was “up to 80%”.
In series [3] (Homo sapiens, paclitaxel 1 nM alone), `CC(=O)O[C@H]1C(=O)[C@@]2(C)[C@H]([C@H](OC(=O)c3ccccc3)[C@]3(O)C[C@H](OC(=O)[C@H](O)[C@@H](NC(=O)c4ccccc4)c4ccccc4)C(C)=C1C3(C)C)[C@]1(OC(C)=O)CO[C@@H]1C[C@@H]2O` [paclitaxel, reference compound] came in with an inhibition at 0.001 µM of less than 5%. Also, the inhibition at 0.005 µM in series [3] (Homo sapiens, paclitaxel 5 nM alone) was roughly 20%. The inhibition at 0.01 µM in series [3] (Homo sapiens, paclitaxel 10 nM alone) is roughly 58%. Also, the growth inhibition entry in series [3] (paclitaxel alone, doses ranging between 0.1 and 10 nM, maximum) is reported as “up to 60%”. In addition, the tumor growth result in series [4] (three cycles (taxol 20 mg/kg/dose i.p.; MBO 10 mg/kg/dose p.o.), FIG. 17A) is recorded as “inhibited tumor growth”. In addition, the survival time result in series [4] (three cycles, FIG. 17B) is listed as “slight increase in survival time”. Also, the “expression of TGFα” value in series [5] is “Unlike taxol, treatment with HYB 165 inhibited the expression of TGF α and AR”. In addition, the “expression of AR” value in series [6] was “Unlike taxol, treatment with HYB 165 inhibited the expression of TGF α and AR”. In addition, the p27 expression entry in series [7] is reported as “Unlike taxol, HYB 165 alone is able to increase p27 expression”. Besides, the “inhibition of staining (microvessel count)” value in series [8] was “over 60%”.
With “Oligo 166: Inverted hybrid antisense 18-mer GCG TGC CUC CUC ACT GGC, SEQ ID NO:6 (antisense GCGTGCCUCCUCACTGGC; inverted hybrid: 2'-O-methyl ribonucleotide middle segment, DNA flanks, exact positions not given here)”, in series [1], the “size of the tumor” value was “smaller from three days after injection onward than the phosphorothioate oligonucleotide 164”.
